Test results published in US11541028B2, “Peptide pharmaceuticals for treatment of NASH and other disorders” (Mederis Diabetes LLC, priority 2018, dated 2023).
Numbered stars: 1 amine (or outer) side, 2 acyl side, 3 side chain; on linkers, the order of the positions; unused ones are H or OH. Bridge positions count the residues as written; N and C are the ends. Square brackets hold non-standard residues; d marks the D form. Side chains are listed from the residue outwards. Peptide text beside a SMILES is read from it. * marks the point of attachment. Melibiouronoyl(1β-O-dodecyl) = CCCCCCCCCCCCO[C@@H]1O[C@H](CO[C@H]2O[C@H](C(=O)*)[C@H](O)[C@H](O)[C@H]2O)[C@@H](O)[C@H](O)[C@H]1O; GlcA(1β-O-tetradecyl) = CCCCCCCCCCCCCCO[C@@H]1O[C@H](C(=O)*)[C@@H](O)[C@H](O)[C@H]1O; εLys = N[C@@H](CCCCN[*:1])C(=O)[*:2]; Aib = CC(C)(N)C(=O)O

Legend:
human GLP-1 receptor = biological target: T1, human GLP-1 receptor (Homo sapiens, UniProt P43220); assay: DiscoveRx LeadHunter cellular assay, cAMP stimulation, GLP-1 receptor in CHO cells; type: cell-based; settings: human GLP-1 receptor in CHO cells (DiscoveRx); read-out: EC50 cAMP GLP-1 R
T1 construct: host or cells: CHO cells
T1 sequence (P43220 24-463): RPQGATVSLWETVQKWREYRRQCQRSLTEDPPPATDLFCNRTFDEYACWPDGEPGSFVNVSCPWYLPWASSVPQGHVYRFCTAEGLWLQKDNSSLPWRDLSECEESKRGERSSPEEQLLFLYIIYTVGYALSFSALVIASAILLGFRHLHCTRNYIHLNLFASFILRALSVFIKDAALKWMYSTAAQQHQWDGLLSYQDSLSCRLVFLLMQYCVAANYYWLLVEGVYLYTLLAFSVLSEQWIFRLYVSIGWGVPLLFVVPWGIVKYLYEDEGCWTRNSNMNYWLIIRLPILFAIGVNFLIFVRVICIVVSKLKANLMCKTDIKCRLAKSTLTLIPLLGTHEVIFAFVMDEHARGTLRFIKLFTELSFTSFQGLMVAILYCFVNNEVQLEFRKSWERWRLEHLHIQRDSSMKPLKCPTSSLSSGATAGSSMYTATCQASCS

human glucagon receptor = biological target: T2, human glucagon receptor (Homo sapiens, UniProt P47871); assay: DiscoveRx LeadHunter cellular assay, cAMP stimulation, glucagon receptor in CHO cells; type: cell-based
T2 construct: host or cells: CHO cells
T2 sequence (P47871 26-477): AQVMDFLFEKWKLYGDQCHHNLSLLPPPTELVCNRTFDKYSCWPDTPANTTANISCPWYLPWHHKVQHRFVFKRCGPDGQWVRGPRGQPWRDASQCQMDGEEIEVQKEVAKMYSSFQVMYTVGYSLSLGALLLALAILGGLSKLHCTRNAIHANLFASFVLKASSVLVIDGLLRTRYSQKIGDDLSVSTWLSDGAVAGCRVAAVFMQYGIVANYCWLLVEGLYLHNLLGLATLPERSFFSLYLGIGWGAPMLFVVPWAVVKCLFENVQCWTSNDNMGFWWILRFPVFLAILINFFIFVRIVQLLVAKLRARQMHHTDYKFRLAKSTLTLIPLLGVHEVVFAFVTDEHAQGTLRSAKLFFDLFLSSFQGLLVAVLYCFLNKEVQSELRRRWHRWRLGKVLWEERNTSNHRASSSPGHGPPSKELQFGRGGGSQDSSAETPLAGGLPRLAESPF

| EC50 (human GLP-1 receptor) [nM] | EC50 (human glucagon receptor) [nM] | Compound |
| --- | --- | --- |
| 0.011 | 0.068 | CCCCCCCCCCCCO[C@@H]1O[C@H](CO[C@H]2O[C@H](C(=O)NCCCC[C@H](NC(=O)[C@H](CC(=O)O)NC(=O)[C@H](CO)NC(=O)[C@@H](NC(=O)[C@H](Cc3ccccc3)NC(=O)[C@@H](NC(=O)CNC(=O)[C@H](CCC(N)=O)NC(=O)C(C)(C)NC(=O)[C@@H](N)Cc3c[nH]cn3)[C@@H](C)O)[C@@H](C)O)C(=O)N[C@@H](CO)C(=O)N[C@@H](CCCCN)C(=O)N[C@@H](Cc3ccc(O)cc3)C(=O)N[C@@H](CC(C)C)C(=O)N[C@@H](CC(=O)O)C(=O)N[C@H]3CCC(=O)NCCCC[C@@H](C(=O)N[C@@H](CCC(=O)O)C(=O)N[C@@H](Cc4ccccc4)C(=O)N[C@H](C(=O)N[C@@H](CCC(N)=O)C(=O)N[C@@H](Cc4c[nH]c5ccccc45)C(=O)N[C@@H](CC(C)C)C(=O)N[C@@H](CC(C)C)C(=O)N[C@@H](CCC(N)=O)C(=O)N[C@H](C(N)=O)[C@@H](C)O)[C@@H](C)CC)NC(=O)[C@H](C)NC(=O)[C@H](C)NC(=O)[C@H](CCC(N)=O)NC3=O)[C@H](O)[C@H](O)[C@H]2O)[C@@H](O)[C@H](O)[C@H]1O [EU-A1594] (H-H[Aib]QGTFTSDK(Melibiouronoyl(1β-O-dodecyl))SKYLDEQAAKEFIQWLLQT-NH2; lactam 16-20) |
| 0.048 | 1.91 | CCCCCCCCCCCCCCO[C@@H]1O[C@H](C(=O)NCCCC[C@H](N)C(=O)NCCCC[C@H](NC(=O)[C@H](C)NC(=O)[C@H](C)NC(=O)[C@H](CCC(N)=O)NC(=O)[C@@H]2CCCCNC(=O)CC[C@H](NC(=O)[C@H](CO)NC(=O)[C@H](Cc3ccc(O)cc3)NC(=O)[C@H](CC(=O)O)NC(=O)[C@H](CO)NC(=O)[C@@H](NC(=O)[C@H](Cc3ccccc3)NC(=O)[C@@H](NC(=O)CNC(=O)[C@H](CCC(N)=O)NC(=O)C(C)(C)NC(=O)[C@@H](N)Cc3c[nH]cn3)[C@@H](C)O)[C@@H](C)O)C(=O)N[C@@H](Cc3ccc(O)cc3)C(=O)N[C@@H](CC(C)C)C(=O)N[C@@H](CC(=O)O)C(=O)N2)C(=O)N[C@@H](CCC(=O)O)C(=O)N[C@@H](Cc2ccccc2)C(=O)N[C@H](C(=O)N[C@@H](CCC(N)=O)C(=O)N[C@@H](Cc2c[nH]c3ccccc23)C(=O)N[C@@H](CC(C)C)C(=O)N[C@@H](CC(C)C)C(=O)N[C@@H](CCC(N)=O)C(=O)N[C@H](C(N)=O)[C@@H](C)O)[C@@H](C)CC)[C@@H](O)[C@H](O)[C@H]1O [EU-A1784] (H-H[Aib]QGTFTSDYSEYLDKQAAK([εLys-GlcA(1β-O-tetradecyl)])EFIQWLLQT-NH2; lactam 12-16; N-terminus assumed) |
| 0.021 | 0.463 | CCCCCCCCCCCCCCCCO[C@H]1O[C@H](CO[C@H]2O[C@H](C(=O)NCCCC[C@H](NC(=O)[C@@H](NC(=O)[C@H](Cc3ccccc3)NC(=O)[C@H](CCC(=O)O)NC(=O)[C@@H]3CCCCNC(=O)CC[C@H](NC(=O)[C@H](CC(=O)O)NC(=O)[C@H](CC(C)C)NC(=O)[C@H](Cc4ccc(O)cc4)NC(=O)[C@H](CCCCN)NC(=O)[C@H](CO)NC(=O)[C@H](Cc4ccc(O)cc4)NC(=O)[C@H](CC(=O)O)NC(=O)[C@H](CO)NC(=O)[C@@H](NC(=O)[C@H](Cc4ccccc4)NC(=O)[C@@H](NC(=O)CNC(=O)[C@H](CCC(N)=O)NC(=O)C(C)(C)NC(=O)[C@@H](N)Cc4c[nH]cn4)[C@@H](C)O)[C@@H](C)O)C(=O)N[C@@H](CCC(N)=O)C(=O)N[C@@H](C)C(=O)N[C@@H](C)C(=O)N3)[C@@H](C)CC)C(=O)N[C@@H](Cc3c[nH]c4ccccc34)C(=O)N[C@@H](CC(C)C)C(=O)N[C@@H](CC(C)C)C(=O)N[C@@H](CCC(N)=O)C(=O)N[C@H](C(N)=O)[C@@H](C)O)[C@H](O)[C@H](O)[C@H]2O)[C@@H](O)[C@H](O)[C@H]1O [EU-A1173] |
| 0.052 | 0.493 | CCCCCCCCCCCCCCO[C@@H]1O[C@H](C(=O)NCCCC[C@H](NC(=O)[C@@H](NC(=O)[C@H](Cc2ccccc2)NC(=O)[C@H](CCC(=O)O)NC(=O)[C@@H]2CCCCNC(=O)CC[C@H](NC(=O)[C@H](CC(=O)O)NC(=O)[C@H](CC(C)C)NC(=O)[C@H](Cc3ccc(O)cc3)NC(=O)[C@H](CCCCN)NC(=O)[C@H](CO)NC(=O)[C@H](Cc3ccc(O)cc3)NC(=O)[C@H](CC(=O)O)NC(=O)[C@H](CO)NC(=O)[C@@H](NC(=O)[C@H](Cc3ccccc3)NC(=O)[C@@H](NC(=O)CNC(=O)[C@H](CCC(N)=O)NC(=O)C(C)(C)NC(=O)[C@@H](N)Cc3c[nH]cn3)[C@@H](C)O)[C@@H](C)O)C(=O)N[C@@H](CCC(N)=O)C(=O)N[C@@H](C)C(=O)N[C@@H](C)C(=O)N2)[C@@H](C)CC)C(=O)N[C@@H](Cc2c[nH]c3ccccc23)C(=O)N[C@@H](CC(C)C)C(=O)N[C@@H](CC(C)C)C(=O)N[C@@H](CCC(N)=O)C(=O)N[C@H](C(=O)NCCOCCOCCOCCOCCC(=O)O)[C@@H](C)O)[C@@H](O)[C@H](O)[C@H]1O [EU-A1634] |
| 0.304 | 0.705 | CCCCCCCCCCCCCCO[C@@H]1O[C@H](CO[C@H]2O[C@H](C(=O)N[C@@H](CCC(=O)N[C@@H](CCC(=O)NCCCC[C@H](NC(=O)[C@@H](NC(=O)[C@H](Cc3ccccc3)NC(=O)[C@H](CCC(=O)O)NC(=O)[C@@H]3CCCCNC(=O)CC[C@H](NC(=O)[C@H](CC(=O)O)NC(=O)[C@H](CC(C)C)NC(=O)[C@H](Cc4ccc(O)cc4)NC(=O)[C@H](CCCCN)NC(=O)[C@H](CO)NC(=O)[C@H](Cc4ccc(O)cc4)NC(=O)[C@H](CC(=O)O)NC(=O)[C@H](CO)NC(=O)[C@@H](NC(=O)[C@H](Cc4ccccc4)NC(=O)[C@@H](NC(=O)CNC(=O)[C@H](CCC(N)=O)NC(=O)C(C)(C)NC(=O)[C@@H](N)Cc4c[nH]cn4)[C@@H](C)O)[C@@H](C)O)C(=O)N[C@@H](CCC(N)=O)C(=O)N[C@@H](C)C(=O)N[C@@H](C)C(=O)N3)[C@@H](C)CC)C(=O)N[C@@H](Cc3c[nH]c4ccccc34)C(=O)N[C@@H](CC(C)C)C(=O)N[C@@H](CC(C)C)C(=O)N[C@@H](CCC(N)=O)C(=O)N[C@H](C(N)=O)[C@@H](C)O)C(=O)O)C(=O)O)[C@H](O)[C@H](O)[C@H]2O)[C@@H](O)[C@H](O)[C@H]1O [EU-A1627] |
| 0.073 | 0.286 | CCCCCCCCCCCCO[C@@H]1O[C@H](CO[C@H]2O[C@H](C(=O)NCCCC[C@@H]3NC(=O)[C@@H](NC(=O)[C@H](CC(=O)O)NC(=O)[C@H](CC(C)C)NC(=O)[C@H](Cc4ccc(O)cc4)NC(=O)[C@H](CCCCN)NC(=O)[C@H](CO)NC(=O)[C@H](Cc4ccc(O)cc4)NC(=O)[C@H](CC(=O)O)NC(=O)[C@H](CO)NC(=O)[C@@H](NC(=O)[C@H](Cc4ccccc4)NC(=O)[C@@H](NC(=O)CNC(=O)[C@H](CCC(N)=O)NC(=O)C(C)(C)NC(=O)[C@@H](N)Cc4c[nH]cn4)[C@@H](C)O)[C@@H](C)O)CCC(=O)NCCCC[C@@H](C(=O)N[C@@H](CCC(=O)O)C(=O)N[C@@H](Cc4ccccc4)C(=O)N[C@H](C(=O)N[C@@H](CCC(=O)O)C(=O)N[C@@H](Cc4c[nH]c5ccccc45)C(=O)N[C@@H](CC(C)C)C(=O)N[C@@H](CC(C)C)C(=O)N[C@@H](CCC(N)=O)C(=O)N[C@H](C(N)=O)[C@@H](C)O)[C@@H](C)CC)NC(=O)[C@H](C)NC(=O)[C@H](C)NC3=O)[C@H](O)[C@H](O)[C@H]2O)[C@@H](O)[C@H](O)[C@H]1O [EU-A1591] (H-H[Aib]QGTFTSDYSKYLDEK(Melibiouronoyl(1β-O-dodecyl))AAKEFIEWLLQT-NH2; lactam 16-20; N-terminus assumed) |
| 0.113 | 1.9 | CCCCCCCCCCCCCCCCO[C@@H]1O[C@H](C(=O)NCCCC[C@H](NC(=O)[C@@H](NC(=O)[C@H](Cc2ccccc2)NC(=O)[C@H](CCC(=O)O)NC(=O)[C@@H]2CCCCNC(=O)CC[C@H](NC(=O)[C@H](CC(=O)O)NC(=O)[C@H](CC(C)C)NC(=O)[C@H](Cc3ccc(O)cc3)NC(=O)[C@H](CCCCN)NC(=O)[C@H](CO)NC(=O)[C@H](Cc3ccc(O)cc3)NC(=O)[C@H](CC(=O)O)NC(=O)[C@H](CO)NC(=O)[C@@H](NC(=O)[C@H](Cc3ccccc3)NC(=O)[C@@H](NC(=O)CNC(=O)[C@H](CCC(N)=O)NC(=O)C(C)(C)NC(=O)[C@@H](N)Cc3c[nH]cn3)[C@@H](C)O)[C@@H](C)O)C(=O)N[C@@H](CCC(N)=O)C(=O)N[C@@H](C)C(=O)N[C@@H](C)C(=O)N2)[C@@H](C)CC)C(=O)N[C@@H](Cc2c[nH]c3ccccc23)C(=O)N[C@@H](CC(C)C)C(=O)N[C@@H](CC(C)C)C(=O)N[C@@H](CCC(N)=O)C(=O)N[C@H](C(=O)NCCOCCOCCOCCOCCOCCOCCOCCOCCC(=O)O)[C@@H](C)O)[C@@H](O)[C@H](O)[C@H]1O [EU-A1647] |
| 0.009 | 0.132 | CCCCCCCCCCCCO[C@@H]1O[C@H](C(=O)NCCCC[C@H](NC(=O)[C@@H](NC(=O)[C@H](Cc2ccccc2)NC(=O)[C@H](CCC(=O)O)NC(=O)[C@@H]2CCCCNC(=O)CC[C@H](NC(=O)[C@H](CC(=O)O)NC(=O)[C@H](CC(C)C)NC(=O)[C@H](Cc3ccc(O)cc3)NC(=O)[C@H](CCCCN)NC(=O)[C@H](CO)NC(=O)[C@H](Cc3ccc(O)cc3)NC(=O)[C@H](CC(=O)O)NC(=O)[C@H](CO)NC(=O)[C@@H](NC(=O)[C@H](Cc3ccccc3)NC(=O)[C@@H](NC(=O)CNC(=O)[C@H](CCC(N)=O)NC(=O)C(C)(C)NC(=O)[C@@H](N)Cc3c[nH]cn3)[C@@H](C)O)[C@@H](C)O)C(=O)N[C@@H](CCC(N)=O)C(=O)N[C@@H](C)C(=O)N[C@@H](C)C(=O)N2)[C@@H](C)CC)C(=O)N[C@@H](Cc2c[nH]c3ccccc23)C(=O)N[C@@H](CC(C)C)C(=O)N[C@@H](CC(C)C)C(=O)N[C@@H](CCC(N)=O)C(=O)N[C@H](C(=O)O)[C@@H](C)O)[C@@H](O)[C@H](O)[C@H]1O [EU-A1681] |
